How the values were obtained:
[1] = test system: breast tumor cells (MDA-MB-231); test: In vitro cytotoxicity, cell viability by MTT assay; assay type: cell-based; conditions: with sonication for 20 min, then 24 hr culture; 75 μL NB suspension or CPT 1.3 μg/mL
Description: FIG. 6 is a diagram showing the cell viability of breast tumor cells (MDA-MB-231) cultured under different conditions. In FIG. 6(a), the control group was performed on the cells cultured without adding the model drug (CPT) and performing sonication. In FIG. 6(b), cells were sonicated for 20 min. In FIG. 6(c), cells were cultured with the medium containing 75 μL of CPT-loaded CHC/SPIO NB suspension without sonication for 20 min. In FIG. 6(d), cells were cultured with the medium containing 75 μL of CPT-loaded CHC/SPIO NB suspension with sonication for 20 min. In FIG. 6(e), cells were cultured with CPT-containing medium (CPT/medium concentration: 1.3 μg/mL) under sonication for 20 min. […] After above treatments, the cell mediums were removed and the cells were washed with PBS. Then, fresh medium was added and further cultured for 24 hr. The cell viability was measured by MTT assay.
Thus, CPT molecules could efficiently access tumor cells. Moreover, the amphiphilic CHC molecules from ruptured bubbles also might be helpful to increase transmembrane permeation.

[2] = Release test with and without sonication, confocal microscope observation of leakage and dispersion; assay type: physicochemical; conditions: sonication 1 MHz, 1 W/cm^2, duty ratio 20%, 20 min
Description: FIG. 5 is a diagram showing the confocal microscope observation for CPT-loaded CHC/SPIO NBs (FIG. 5(a)) and FITC-loaded CHC/SPIO NBs (FIG. 5(b), indicated by arrows). […] FIGS. 5(d) and (e) show the confocal microscope observation for CPT-loaded CHC/SPIO NBs after the release test without sonication and with sonication (ultrasonic frequency: 1 MHz, power density: 1 W/cm^2, duty ratio: 20%) for 20 min, respectively. […] Scale bar 5 μm.
The confocal photographs of the as-received CHC/SPIO MBs loaded with hydrophobic agent (CPT, blue fluorescence) and hydrophilic agent (FITC, green fluorescence) are shown in FIGS. 5(a) and 5(b), respectively. […] This implies that CHC/SPIO MBs can carry both hydrophobic and hydrophilic agents, and the encapsulation ability of CHC/SPIO MBs for CPT (a hydrophobic agent) was better than that for FITC (a hydrophilic agent). […] This was not observed for the CPT-containing medium (without CHC) under the same sonication for 20 min.

CC[C@@]1(O)C(=O)OCc2c1cc1n(c2=O)Cc2cc3ccccc3nc2-1 [CPT, camptothecin]
cytotoxicity / cell viability [1]: higher viability than those treated with CPT-loaded CHC/SPIO NBs under sonication | dispersion of CPT in hydrophilic medium [2]: not well-dispersed under sonication
